Counter-ions that a name gives are not always drawn. Like-named read-outs stand apart in the source and are kept apart here.
Experiments:
Type in all cases: biochemical
PIM3 = biological target: T1, PIM3 (Homo sapiens, UniProt Q86V86); test: PIM3 protein kinase assay; conditions: for remaining activity at 10 µM: 10 μM compound; for residual kinase activity PIM3: 1 μm compound; for remaining activity at 1 µM: 1 μM compound
T1 construct: All protein kinases were of human origin and encoded full length proteins, unless indicated otherwise; made in house
Description: (§1) All protein kinases were of human origin and encoded full length proteins, unless indicated otherwise. They were either expressed as glutathione S-transferase (GST) fusion proteins in Escherichia Coli or as hexahistidine (His6)-tagged proteins in insect Sf21 cells. GST fusion proteins were purified by affinity chromatography on glutathione-Sepharose, and His6-tagged proteins on nickel/nitriloacetate-agarose. The procedures for expressing some of the protein kinases used herein have been detailed previously.^8,9 The following sections outline the DNA vectors synthesised and the procedures used to express and purifying protein kinases that have not been reported previously.
(§2) All assays (25.5 μl) were carried out at room temperature (21° C.) and were linear with respect to time and enzyme concentration under the conditions used. Assays were performed for 30 min using Multidrop Micro reagent dispensers (Thermo Electron Corporation, Waltham, Mass. 02454, USA) in a 96-well format. The concentration of magnesium acetate in the assays was 10 mM and the [γ-33P] ATP (800 cpm/pmol) was used at 5, 20 or 50 μM as indicated, in order to be at or below the Km for ATP for each enzyme. Protein kinases assayed at 5 μM ATP were: —ERK1, ERK8, PKBα, MARK3, Aurora C. Protein kinases assayed at 20 μM ATP were: —JNK1, PDK1, CHK1, CHK2, CDK2 and Aurora B. Protein kinases assayed at 50 μM ATP were: —MNK2, IKKepsilon and TBK1.
(§3) The assays were initiated with MgATP, stopped by addition of 5 μl of 0.5 M orthophosphoric acid and spotted on to P81 filterplates using a unifilter harvester (PerkinElmer, Boston, Mass. 02118, USA). The IC50 values of inhibitors were determined after carrying out assays at 10 different concentrations of each compound.
(§4) Unless stated otherwise, enzymes were diluted in 50 mM Tris/HCl pH 7.5, 0.1 mM EGTA, 1 mg/ml BSA, 0.1% (v/v) 2-mercaptoethanol and assayed in 50 mM Tris/HCl pH 7.5, 0.1 mM EGTA, 0.1% (v/v) 2-mercaptoethanol.

CAMK1 = biological target: T2, CAMK1 (Homo sapiens, UniProt Q14012); test: CAMK1 protein kinase assay; conditions: for remaining activity at 10 µM: 10 μM compound; for residual kinase activity CAMK1: 1 μm compound; for remaining activity at 1 µM: 1 μM compound
T2 construct: All protein kinases were of human origin and encoded full length proteins, unless indicated otherwise; made in house
Description: as §1, §2, §3, §4

TBK1 = biological target: T3, TBK1 (Homo sapiens, UniProt Q9UHD2); test: TBK1 protein kinase assay ([γ-33P]ATP, P81 filterplates)
T3 construct: All protein kinases were of human origin and encoded full length proteins, unless indicated otherwise; His6; made in house; host or cells: insect Sf21 cells
T3 sequence (Q9UHD2 1-729): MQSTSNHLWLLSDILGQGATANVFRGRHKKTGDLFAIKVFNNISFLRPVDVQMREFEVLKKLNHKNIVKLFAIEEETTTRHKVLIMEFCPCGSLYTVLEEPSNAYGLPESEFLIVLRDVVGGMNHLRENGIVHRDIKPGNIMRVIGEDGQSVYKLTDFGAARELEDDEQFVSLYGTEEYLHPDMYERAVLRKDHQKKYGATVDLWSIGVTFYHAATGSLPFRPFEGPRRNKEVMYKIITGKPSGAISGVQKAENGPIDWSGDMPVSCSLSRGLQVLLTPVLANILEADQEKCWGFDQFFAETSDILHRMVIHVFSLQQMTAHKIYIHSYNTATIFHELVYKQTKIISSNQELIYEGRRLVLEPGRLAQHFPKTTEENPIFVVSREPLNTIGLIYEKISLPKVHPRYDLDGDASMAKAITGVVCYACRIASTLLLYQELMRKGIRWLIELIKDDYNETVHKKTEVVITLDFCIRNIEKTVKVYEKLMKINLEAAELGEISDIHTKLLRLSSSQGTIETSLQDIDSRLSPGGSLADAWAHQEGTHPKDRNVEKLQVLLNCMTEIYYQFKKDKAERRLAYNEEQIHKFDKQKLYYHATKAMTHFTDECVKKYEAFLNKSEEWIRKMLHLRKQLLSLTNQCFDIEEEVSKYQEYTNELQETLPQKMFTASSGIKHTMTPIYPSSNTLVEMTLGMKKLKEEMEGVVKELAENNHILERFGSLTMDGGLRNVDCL
Procedure, shortened: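 Human TBK1 assayed for 30 min with peptide substrate (300 μM), 50 μM [γ-33P]ATP and 10 mM magnesium acetate in 50 mM Tris/HCl pH 7.5, 0.1 mM EGTA, 0.1% 2-mercaptoethanol. Stopped with orthophosphoric acid and counted on P81 filters. IC50 from 10 compound concentrations.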

Lck = biological target: T4, Lck (Homo sapiens, UniProt P06239); test: Lck protein kinase assay; conditions: for remaining activity at 10 µM: 10 μM compound; for residual kinase activity Lck: 1 μm compound; for remaining activity at 1 µM: 1 μM compound
T4 construct: All protein kinases were of human origin and encoded full length proteins, unless indicated otherwise; made in house
Description: as §1, §2, §3, §4

[1] = read-out: residual kinase activity PIM3
[2] = read-out: residual kinase activity CAMK1
[3] = read-out: residual kinase activity Lck
[4] = PIM3, read-out: residual kinase activity
[5] = CAMK1, read-out: residual kinase activity
[6] = 50 μM ATP, read-out: Potency (TBK1 IC50 potency score)
[7] = Table 2, 50 μM ATP, read-out: TBK1 IC50
[8] = Lck, read-out: residual kinase activity

T4 sequence (P06239 whole entry): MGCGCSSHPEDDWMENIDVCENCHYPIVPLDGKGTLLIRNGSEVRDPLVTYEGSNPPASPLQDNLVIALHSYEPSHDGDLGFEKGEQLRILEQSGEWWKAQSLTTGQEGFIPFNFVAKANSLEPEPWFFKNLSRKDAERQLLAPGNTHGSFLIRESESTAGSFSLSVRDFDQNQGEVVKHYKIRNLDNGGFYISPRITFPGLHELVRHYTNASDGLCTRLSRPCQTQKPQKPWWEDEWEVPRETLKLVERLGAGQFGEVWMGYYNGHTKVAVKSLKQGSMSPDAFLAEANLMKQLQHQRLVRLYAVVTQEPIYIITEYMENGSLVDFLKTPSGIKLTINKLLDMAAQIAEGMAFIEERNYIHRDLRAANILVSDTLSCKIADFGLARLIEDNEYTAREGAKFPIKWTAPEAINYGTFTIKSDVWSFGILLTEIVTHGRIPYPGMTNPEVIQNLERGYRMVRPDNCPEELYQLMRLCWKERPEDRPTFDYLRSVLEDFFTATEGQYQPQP
T2 sequence (Q14012 whole entry): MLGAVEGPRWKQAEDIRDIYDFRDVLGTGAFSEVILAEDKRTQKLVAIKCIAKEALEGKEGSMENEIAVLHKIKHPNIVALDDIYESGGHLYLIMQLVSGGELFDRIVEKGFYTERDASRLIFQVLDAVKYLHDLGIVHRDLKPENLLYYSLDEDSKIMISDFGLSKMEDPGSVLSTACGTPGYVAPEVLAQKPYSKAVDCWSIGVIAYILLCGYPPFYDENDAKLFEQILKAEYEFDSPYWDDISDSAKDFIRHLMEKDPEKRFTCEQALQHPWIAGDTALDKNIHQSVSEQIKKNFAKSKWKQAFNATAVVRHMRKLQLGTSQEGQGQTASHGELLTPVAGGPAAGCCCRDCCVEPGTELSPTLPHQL

| Compound | remaining activity at 10 µM (PIM3; [1]) | residual kinase activity PIM3 (PIM3) | remaining activity at 10 µM (CAMK1; [2]) | residual kinase activity CAMK1 (CAMK1) | IC50 (TBK1; read-out: TBK1 IC50) | remaining activity at 10 µM (Lck; [3]) | residual kinase activity Lck (Lck) | remaining activity at 1 µM (PIM3; [4]) | remaining activity at 10 µM (PIM3; [4]) | remaining activity at 1 µM (CAMK1; [5]) | remaining activity at 10 µM (CAMK1; [5]) | IC50 (TBK1; [6]) | IC50 (TBK1; [7]) | IC50 (TBK1; Table 5, 50 μM ATP, read-out: TBK1 IC50) | fold more active against TBK1 than Compound B or Compound C (TBK1; from TBK1 IC50 values of Table 5) | remaining activity at 1 µM (Lck; [8]) | remaining activity at 10 µM (Lck; [8]) |
| --- | --- | --- | --- | --- | --- | --- | --- | --- | --- | --- | --- | --- | --- | --- | --- | --- | --- |
| O=C(NCCCNc1nc(Nc2cccc(F)c2)ncc1Br)C1CCC1 [Compound A, cyclobutanecarboxylic acid {3-[5-bromo-2-(3-fluoro-phenylamino)-pyrimidin-4-ylamino]-propyl}-amide, reference compound] | 21% | 78% | 25% | 54% | 2 nM | 10% | 57% |  |  |  |  |  |  |  |  |  |  |
| O=C(NCCCNc1nc(Nc2cccc(F)c2)ncc1C1CC1)C1CCC1 [Example 23, Cyclobutanecarboxylic acid {3-[5-cyclopropyl-2-(3-fluoro-phenylamino)-pyrimidin-4-ylamino]-propyl}-amide] | 37% | 73% | 66% | 77% | 4 nM | 37% | 86% | 73% | 37% | 77% | 66% | < 100 nM | 4 nM | 4 nM | > 250 fold | 86% | 37% |
| O=C(NCCCNc1nc(Nc2cccc(N3CCCC3=O)c2)ncc1C1CC1)c1cccs1 [Example 47, Thiophene-2-carboxylic acid (3-{5-cyclopropyl-2-[3-(2-oxo-pyrrolidin-1-yl)-phenylamino]-pyrimidin-4-ylamino}-propyl)-amide. Hydrochloride salt] |  |  |  |  |  |  |  | 99% | 78% | 91% | 73% |  |  |  |  | 105% | 69% |
| O=C(NCCCNc1nc(Nc2cccnc2)ncc1C1CC1)c1cccs1 [Example 50, Thiophene-2-carboxylic acid {3-[5-cyclopropyl-2-(pyridin-3-ylamino)-pyrimidin-4-ylamino]-propyl}-amide] |  |  |  |  |  |  |  | 102% | 50% | 94% | 71% | 100 to 1000 nM | 108 nM |  |  | 91% | 50% |
